The values below come from PubChem BioAssay AID588780 (Sanford-Burnham Center for Chemical Genomics, 2011).

Calls of active or inactive are those of the source.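 How the source made its calls: active means compounds whose fitted half-maximal concentration in the cell-protection dose series is at or below a set limit; inactive means the rest.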

The assay deals with H9c2 cardiomyocytes, 2-deoxyglucose stress, ATP luminescence, 2 h. Put plainly: H9c2 cell survival under 2-deoxyglucose stress – uHTS hits, dose response (AID 588780).
For orientation: IC50 means the concentration that gives 50% inhibition. Take `CC(=O)Nc1cc(-c2cccc(NS(C)(=O)=O)c2)cn2c(-c3cccc(C(C)=O)c3)cnc12`: the IC50 was > 79 µM (inactive).
With `COc1cc(-c2cc(NC(C)=O)c3ncc(-c4ccc(F)cc4)n3c2)cc(OC)c1OC` the figure was > 79 µM (inactive); with `O=C(COC(=O)CCc1nc2ccccc2c(=O)[nH]1)Nc1c(Cl)cccc1C(F)(F)F`, > 79 µM (inactive).
To `O=C(CC1CC2CCC1C2)Nc1nc(-c2ccccn2)cs1` (stereo not given) belongs > 79 µM (inactive); to `Cc1ccc2[nH]c(=O)c(CN(CCCN3CCOCC3)C(=O)Nc3ccc(Cl)cc3)cc2c1`, > 79 µM (inactive).
With `COc1cc(/C=N/NC(=O)c2ccccc2O)ccc1OCC(=O)Nc1ccccc1` the figure was > 79 µM (inactive).
On to `Cc1cccc(NC(=O)c2nc[nH]c2C(=O)NCCCCCCNC(=O)c2[nH]cnc2C(=O)Nc2cccc(C)c2)c1`, for which the IC50 was > 79 µM (inactive).
To `CCCn1c(=O)c2[nH]c(-c3ccc(OCC(=O)Nc4ccc(C#N)cc4)cc3)nc2n(CCC)c1=O` belongs > 79 µM (inactive); to `C#CCOc1nc(Nc2cccc([N+](=O)[O-])c2)nc(OCC#C)n1`, > 79 µM (inactive).
With `COc1ccc(/C=C(\C#N)C(=O)c2c(C)[nH]c3ccccc23)cc1OC` the figure was > 79 µM (inactive); with `Cc1ccc(C(=O)Oc2ccc(Cl)c3cccnc23)cc1[N+](=O)[O-]`, > 79 µM (inactive); with `CCCN1C(=O)/C(=C/c2nc3ccccc3c(=O)[nH]2)c2ccccc21`, 11.2 µM.
As for `Cc1ccc2cc(C#N)c(N3CCN(C(=O)c4cccs4)CC3)nc2c1`, the IC50 is > 79 µM (inactive).
To `Cc1ccc(CNC(=O)c2oc3ccc(S(=O)(=O)N4CCOCC4)cc3c2C)cc1` belongs 14.1 µM.
Turning to `Cc1cccc(C)c1OCCn1nc(C(=O)O)c2ccccc2c1=O`, the IC50 is 10.8 µM.
As for `Cc1ccc(C=NNc2nc3c([nH]2)c(=O)n(C)c(=O)n3C)cc1`, the IC50 was 11.8 µM.
With `O=C(Cc1n[nH]c(=O)c2ccccc12)OCC(=O)c1ccccc1` the figure was > 79 µM (inactive); with `Cc1cc(C(=O)N/N=C/c2c(CO)cnc(C)c2O)c2ccccc2n1`, > 79 µM (inactive).
In the case of `Cc1cc(Cl)ccc1OCCCC(=O)NNC(=O)c1ccccc1O`, the IC50 is > 79 µM (inactive).
With `O=C(N/N=C/c1ccccn1)c1cc(-c2ccc(Cl)s2)[nH]n1` the figure was > 79 µM (inactive); with `COc1ccc(/C=N/NC(=O)c2cc(OC)c(OC)c(OC)c2)cc1CN1CCc2cc(OC)c(OC)cc2C1C` (stereo not given), > 79 µM (inactive); with `CC(=O)n1cc(/C=N/NC(=O)c2sc(C)nc2C)c2ccccc21`, > 79 µM (inactive).
Regarding `COc1cc2c(C#CCCO)c(-c3ccsc3)oc(=O)c2cc1OC`, the IC50 is > 79 µM (inactive).
With `COc1ccc(-c2nc(NC(=O)c3ccc(OCC(=O)N4CCOCC4)c(OC)c3)sc2C)cc1` the figure was > 79 µM (inactive); with `COc1cc(C(=O)N/N=C/c2ccc(OC(=O)c3ccccc3)c(OC)c2)ccc1O`, > 79 µM (inactive).
In the case of `O=c1c(O)c(-c2ccccc2)oc2cc(O)ccc12`, the IC50 is > 79 µM (inactive).
`O=C(COC(=O)Cc1n[nH]c(=O)c2ccccc12)NNC(=O)c1ccc(Br)cc1`: the IC50 was > 79 µM (inactive).
As to `Cc1cccc(NC(=O)c2nc[nH]c2C(=O)NCCCNC(=O)c2[nH]cnc2C(=O)Nc2cccc(C)c2)c1`, the IC50 is 31.6 µM (inactive).
To `O=C1Nc2ccccc2C(=O)C1(Cl)Cc1ccccc1` (stereo not given) belongs > 79 µM (inactive).
With `CC1Cc2ccccc2N1C(=O)COC(=O)c1n[nH]c(=O)c2ccccc12` (stereo not given) the figure was > 79 µM (inactive).
With `O=C(CNC(=O)c1nc[nH]c1C(=O)NCC(=O)OCc1ccccc1)OCc1ccccc1` the figure was 39.5 µM (inactive); with `CCN(CC(=O)Nc1c(F)cccc1F)C(=O)CCc1nc2ccccc2c(=O)[nH]1`, > 79 µM (inactive).
Consider `Cc1c(C2Nc3ccccc3C(=O)N2O)cnn1C` (stereo not given), for which the IC50 is 14.6 µM.
To `COC(=O)C1=C(C)N(CCc2ccc(OC)cc2)C(=O)C1` belongs 39.4 µM (inactive); to `Cc1cc(C)cc(NC(=O)CSc2ccc(-c3ccccn3)nn2)c1`, > 79 µM (inactive).
In the case of `c1ccc(-c2oc3ncnc(NCCN4CCOCC4)c3c2-c2ccccc2)cc1`, the IC50 was 23.2 µM.
With `COc1c(O)cccc1/C=N/NC(=O)Cn1ccnc1C` the figure was > 79 µM (inactive); with `Cc1ccc2nc(-c3ccccc3)cc(C(=O)NNC(=O)c3csc(N4CCOCC4)n3)c2c1`, > 79 µM (inactive); with `COc1ccc(-c2cc(-c3nnc(COC(=O)c4ccncc4)o3)c3ccccc3n2)cc1OC`, 11.4 µM.
To `CCCn1c(NC(=O)c2ccccc2)nc2ccccc21` belongs > 79 µM (inactive).
On to `COc1ccc(C2CC(c3cccs3)n3nc(N)nc3N2)cc1` (stereo not given), for which the IC50 was > 79 µM (inactive).
To `Cc1ccc(OCC(=O)N/N=C/c2cccc3cccnc23)cc1` belongs 35.8 µM (inactive).
With `Cn1c2ccccc2c(=O)c2ccc(NCc3ccc4c(c3)OCO4)cc21` the figure was 8.06 µM.
With `Nc1ncc(-c2ccccc2)n1CC1CCCO1` (stereo not given) the figure was > 79 µM (inactive); with `COc1ccc(C(=O)NNC(=O)c2ccc3ccccc3n2)cc1`, > 79 µM (inactive).
In the case of `CCCCOc1ccc(C(=O)N/C(=C\c2ccc(OC)cc2)C(=O)OCc2ccco2)cc1`, the IC50 is > 79 µM (inactive).
To `CCOC(=O)N1CCN(S(=O)(=O)c2ccc(C(=O)NNc3nc4c(C)cccc4s3)cc2)CC1` belongs > 79 µM (inactive); to `Cc1ccc(OCCOC(=O)CCc2nc3ccccc3c(=O)[nH]2)cc1`, > 79 µM (inactive); to `CCC(=O)Oc1cccc(C(=O)Nc2ccc(-c3nnc(-c4ccco4)o3)cc2)c1`, > 79 µM (inactive).
With `O=C(CCCN1C(=O)c2cccc3cccc(c23)C1=O)N1CCN(c2ccccc2O)CC1` the figure was 10.3 µM; with `Cc1ncc(CO)c2c1Oc1nc(-c3ccccc3)nc(SCC(=O)N3CCCCC3)c1C2`, > 79 µM (inactive); with `COc1ccc(NC(=O)C(OC(=O)c2ccc([N+](=O)[O-])o2)c2ccccc2)cc1Cl` (stereo not given), > 79 µM (inactive).
As for `CC(C)(C)OC(=O)C[C@H]1C/C=C\C[C@H](CC(=O)N[C@H](CO)Cc2ccccc2)C(=O)N[C@H](Cc2ccccc2)COC1=O`, the half-maximal inhibitory concentration (IC50) is 20.5 µM.
With `Brc1cc2c(cc1/C=N/Nc1nc(N3CCCC3)nc(N3CCOCC3)n1)OCO2` the figure was > 79 µM (inactive); with `CN(CC(=O)Nc1c(Cl)cccc1Cl)C(=O)Cn1[nH]c(=O)c2ccccc2c1=O`, > 79 µM (inactive); with `Cc1ccc(-c2nnc(NCc3nc4ccccc4[nH]3)c3ccccc23)cc1S(=O)(=O)N1CCOCC1`, > 79 µM (inactive).
With `COc1ccc(CCNC(=O)C(=O)NCC2CCCN2S(=O)(=O)c2ccccc2)cc1OC` (stereo not given) the figure was > 79 µM (inactive).
On to `C=CCn1cnc2c(c1=O)c1nc3ccccc3nc1n2/N=C/c1cc(OC)c(OC)c(OC)c1`, for which the IC50 was > 79 µM (inactive).
Consider `CCCCCCn1c(C)nc2c(c1=O)c1nc3ccccc3nc1n2/N=C/c1ccco1`, for which the IC50 was > 79 µM (inactive).
Turning to `CCOC(=O)CNC(=O)CSc1nc2nc(C)c(Br)cc2[nH]1`, the IC50 was > 79 µM (inactive).
